Experimental data published in US20030153951A1, “Methods and devices for treating arrhythmias using defibrillation shocks” (priority 2002, published 2003).

What was measured:
ventricular fibrillation = assay: Defibrillation threshold (3-reversal up/down protocol) after electrically induced ventricular fibrillation in anesthetized pigs; format: in vivo
Text: (§1) Six healthy pigs (30-35 kg) of either sex were anesthetized, monitored, and maintained under physiologic conditions. See, Chattipakorn et al. (2000). Two catheter-mounted platinum coated titanium coil electrodes were used as defibrillating electrodes. A 34-mm catheter was inserted into the right ventricular (RV) apex and served as the cathode for the first phase of the biphasic shock. […] The position of the catheters was verified with fluoroscopy. The blood pressure and heart rate were monitored continuously throughout the entire study.
Ventricular fibrillation was induced by 60-Hz alternating current delivered via an electrode at the tip of the RV catheter. After 10 seconds of ventricular fibrillation, defibrillation was attempted with 10-ms biphasic truncated exponential shocks. Delivered voltage and current were recorded on a waveform analyzer and total delivered energy was calculated. A minimum of 4 min was allowed to elapse between ventricular fibrillation episodes.
(§2) The defibrillation threshold was determined 4 times during 4 different conditions in this study. The defibrillation threshold in each group was determined using a 3-reversal up/down protocol. See Chattipakorn et al. The first defibrillation threshold was determined at the beginning of the study. This defibrillation threshold was used as a control defibrillation threshold (control-DFT). Then, Flunarizine, a delayed afterdepolarization inhibitor, was injected intravenously as a bolus (2 mg/kg) and maintenance (4 mg/kg/hr) dose. The second defibrillation threshold (drug-DFT) was determined 15 minutes after the application of Flunarizine. After the drug-DFT was obtained, the administration of Flunarizine was terminated while the blood pressure and heart rate were monitored. The third defibrillation threshold (washout-DFT) was determined again when the blood pressure returned to the control level which normally took 60 minutes after the termination of the drug.
Values are shown as mean standard deviation. Comparisons of data among different defibrillation threshold groups were performed using an analysis of variance. When statistical significance was found, individual differences were analyzed with a Fisher's post-hoc test. Differences were considered significant when P<0.05.

[1] = Systolic blood pressure monitored during the defibrillation threshold study; format: in vivo; settings: pigs
Text: as §1
as §2, with “Then, Flunarizine, a delayed afterdepolarization inhibitor, was injected intravenously as a bolus (2 mg/kg) and maintenance (4 mg/kg/hr) dose.” left out, “drug. […]” for “drug.”

SMILES: Fc1ccc(C(c2ccc(F)cc2)N2CCN(C/C=C/c3ccccc3)CC2)cc1 [Flunarizine]
- washout defibrillation threshold compared with control-DFT (ventricular fibrillation; after termination of drug, when blood pressure returned to control level (normally 60 minutes)): not significantly different from the control-DFT
- reduction of the defibrillation threshold by energy (ventricular fibrillation; drug-DFT vs control-DFT): approximately 40%
- reduction of the defibrillation threshold by leading edge voltage (ventricular fibrillation; drug-DFT vs control-DFT): approximately 22%
- drug-DFT, delivered leading edge voltage (ventricular fibrillation; i.v. bolus 2 mg/kg + maintenance 4 mg/kg/hr, determined 15 minutes after application, 10-ms biphasic shocks, mean ± SD, control-DFT 623±120 volts): 485±82 volts
- drug-DFT, total delivered energy (ventricular fibrillation; i.v. bolus 2 mg/kg + maintenance 4 mg/kg/hr, determined 15 minutes after application, mean ± SD, control-DFT 23±4 joules): 14±3 joules
- systolic blood pressure ([1]; after i.v. injection (bolus 2 mg/kg + 4 mg/kg/hr), mean ± SD, control 102±11 mmHg): 76±10 mmHg
- reduction of the systolic blood pressure ([1]; vs control): ~26%
